Values belong to the compound of their own block, whether it stands above or below them.
What was measured:
[1] = DPPH radical scavenging assay; conditions: 30 min incubation, λ = 517 nm
Experimental: The DPPH^• radical scavenging assay is based on transferring a hydrogen atom from the tested compounds to the violet stable free radical DPPH^• (2,2-diphenyl-1-picrylhydrazyl radical), converting it into a yellow compound. The assay was conducted using tested compounds and references in concentrations ranging from 2 to 50 µM, according to our adaptation of the protocol of Brand-Williams et al.. The absorbance of the samples is given by the remaining unreacted reagent radical, and it is inversely proportional to the amount of DPPH^• neutralized. The absorbance of the samples was measured at λ = 517 nm after 30 min of incubation in the dark at room temperature. The DPPH^• radical scavenging activity of the compounds was calculated using Equation (1):(1) DPPH^• scavenging (%)=control absorbance−sample absorbance/control absorbance×100

[2] = Indirect 1O2 scavenging assay (ICG photo-generator, DPBF probe)
Experimental: The ^1O2 scavenging assay was employed using a previously established indirect protocol from our research group. In brief, indocyanine green (ICG), from Sigma–Aldrich (St. Louis, MO, USA), was utilized to induce ^1O2 production in the presence of 5a and 5b. Ascorbic acid was used as a reference antioxidant agent, and a blank sample without ^1O2 scavengers was prepared. The reaction mixtures were exposed to a Micro Raman System R-3000 (Photonitech, Singapore, Singapore) laser diode,(λ = 785 nm, 190 mW power) for a total time of 100 s. To evaluate the ^1O2 scavenging activity of the compounds 5a,b, the degradation of 1,3-diphenylisobenzofuran (DPBF), obtained from Alfa Aesar (Haverhill, MA, USA), was measured using a V-730 spectrophotometer (Jasco International Co., Ltd., Tokyo, Japan). To determine the ^1O2 quantum yields (Φ(^1O2)) of ICG in the presence of the studied molecules, the following equation was used: Φ(^1O2) = Φ(^1O2) ^ICG × ((S × F^ICG)/(S^ICG × F)), where S represents the slope of the absorbance difference of DPBF over time, F is the absorption correction factor (F = 1 − 10^−OD), and OD is the optical density at the excitation wavelength, λ = 785 nm. The Φ(^1O2) equal to 15.0% of free ICG was used as a reference. The concentrations utilized in the experiment were 0.1 mM for DPBF and 10^−5 M for ICG and the ^1O2 scavengers. Free DPBF was used as a control.
The efficacy of compounds 5a,b against ^1O2 was assessed using an indirect approach. ICG was used as a photo-induced ^1O2 generator alongside DPBF, serving as an indirect chemical probe capable of characterizing ^1O2 release in solution. This setup allowed us to evaluate the ^1O2 scavenging capacity of the tested molecules and compare their activity to a reference compound, specifically ascorbic acid. The samples were exposed to 785 nm laser radiation, and at 10-s intervals after irradiation, their UV-Vis absorption spectra were measured and analyzed (Figure 9). Subsequently, we determined the ^1O2 quantum yields (Φ(^1O2)) of ICG in the presence of 5a,b and ascorbic acid, using the Φ(^1O2) of free ICG of 15.0% as reference.

[3] = Ferrous ions chelation assay (ferrozine)
Experimental: Solutions of the tested compounds or ethylenediaminetetraacetic acid disodium salt (EDTA-Na2), used as a positive control, were thoroughly mixed with 0.5 mL of FeSO4 (0.125 mM) and 0.5 mL of ferrozine (0.315 mM). After a 10-min incubation in the dark at room temperature, the absorbance was measured at λ = 562 nm.

[4] = set-up: method as in PMID 30881661; conditions: free ICG, used as reference; cited from earlier work
[5] = ABTS radical cation decolorization assay; conditions: 10 min incubation, pH 7.4, λ = 734 nm
Experimental: The ABTS^•+ (2,2′-azinobis-(3-ethylbenzothiazoline-6-sulfonic acid) decolorization assay, based on the method of Re et al., was performed in the concentration range of 1 to 25 µM according to protocols previously reported by our group. The reagent was prepared in a 0.1 M potassium phosphate buffer (pH 7.4) and activated overnight with MnO2 [89]. Prior to use, the stability of the ABTS^•+ reagent was verified by checking its absorbance at λ = 734 nm over one hour, ensuring a consistent absorption of around 0.7. The mixtures were incubated for 10 min in the dark at room temperature. The absorbance of the samples is given by the remaining unreacted reagent radical, and it is inversely proportional to the amount of ABTS^•+ neutralized. The ABTS^•+ scavenging activity of compounds was calculated using Equation (2).(2) ABTS^•^+ scavenging (%)=control absorbance−sample absorbance/control absorbance×100

[6] = test system: rat microsomal membrane lipid peroxidation; experiment: Lipid peroxidation inhibition assay (LPI), 2-thiobarbituric acid method; assay type: biochemical; conditions: ascorbic acid/Fe^2+ system, 37 °C, 45 min
Experimental: Rat liver microsomes were homogenized in saline, and the resulting homogenates were centrifuged at 9000× g for 20 min at 4 °C to remove cell debris. The supernatant underwent ultracentrifugation at 110,000× g for 40 min at 4 °C. The pelleted microsomal fraction was subsequently washed with saline via another round of ultracentrifugation under identical conditions. Thereafter, the pellet was resuspended in Tris-HCl buffer (pH 7.4) to achieve a concentration equivalent to 0.5 g liver per mL and was stored until further analysis (at −80 °C). For the assay, the microsomal preparation was thermally inactivated by incubation at 90 °C for 90 s, then homogenized again and diluted to a final concentration equivalent to 4 mM fatty acid equivalents. […] All mixtures were incubated at 37 °C under air with continuous shaking. […] This was followed by heating at 90 °C for 20 min and centrifugation at 3000 rpm for 15 min. As a result of the breakdown of unsaturated fatty acids, malondialdehyde reacts with the 2-thiobarbituric acid to produce a pink compound due to the formation of a Schiff base. The extent of lipid peroxidation was measured spectrophotometrically at 535/600 nm, which is proportional to the amount of the chromogen reaction product formed between 2-thiobarbituric acid and malondialdehyde. The determinations were performed in triplicate, and the standard deviation was within ±10% of the mean value.

OR51E2 = test system: OR51E2; set-up: method as in PMID 29249973; conditions: RPE cells; cited from earlier work

- IC50 [1]: 50.2 µM
Compound: O=C1O[C@H]([C@@H](O)CO)C(O)=C1O [Ascorbic acid, ascorbic acid, reference compound]
- ^1O2 quantum yield Φ(^1O2) of ICG in the presence of the scavenger ([2]; 10^−5 M ICG and scavenger, 785 nm laser, 100 s): 9.4%
- reduction of ^1O2 quantum yield of ICG compared to ICG alone ([2]; addition of scavenger to ICG): 5.6%

Compound: O=C([O-])CN(CCN(CC(=O)O)CC(=O)O)CC(=O)[O-].[Na+].[Na+] [EDTA-Na2, ethylenediaminetetraacetic acid disodium salt, reference compound]
- % of ferrous ions chelation ([3]; 50 nM): 11.71%
- % of ferrous ions chelation ([3]; 100 nM): 20.00%
- % of ferrous ions chelation ([3]; 150 nM): 36.37%
- % of ferrous ions chelation ([3]; 175 nM): 61.98%
- % of ferrous ions chelation ([3]; 200 nM): 86.53%

Compound: CC1(C)C(/C=C/C=C/C=C/C=C2\N(CCCCS(=O)(=O)O)c3ccc4ccccc4c3C2(C)C)=[N+](CCCCS(=O)(=O)[O-])c2ccc3ccccc3c21 [ICG, indocyanine green]
- ^1O2 quantum yield Φ(^1O2) of ICG alone [4]: 15%

- IC50 [1]: 35.8 µM
- IC50 [5]: 15.9 µM
- IC50 [6]: 25 µM
Compound: Cc1c(C)c2c(c(C)c1O)CCC(C)(C(=O)O)O2 (stereo not shown) [Trolox, reference compound]

Compound: CC(=O)/C=C/C1=C(C)CCCC1(C)C [β-ionone]
- threshold concentration to trigger a cellular response (OR51E2): under 10 µM

Source: PMC12189671, “Antioxidant Activity and Cytotoxicity Evaluation of New Catechol Hydrazinyl-Thiazole Derivatives as Potential Protectors in Retinal Degenerative Processes” (Antioxidants, 2025)
